Measurements published in US20240122180A1, “FUNGICIDAL HALOMETHYL KETONES AND HYDRATES AND THEIR MIXTURES” (FMC Corporation, priority 2020, published 2024).

What was measured:
[1] = tested on: Puccinia recondita f. sp. tritici (the causal agent of wheat leaf rust); test: Test B: preventive spray on wheat seedlings, disease rating (100 = 100% control; * 50 ppm, ** 10 ppm, *** 250 ppm); type: in vivo; conditions: 100 = 100% disease control; for pest or weed control at 10 ppm: Puccinia recondita
In short: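 Wheat seedlings sprayed to run-off with compound in acetone/water (50/50) containing 250 ppm PEG400, inoculated next day with Puccinia recondita f. sp. tritici spores. Held 24 h saturated at 20° C, then 6 days at 20° C; disease control rated 0–100 relative to controls.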

[2] = tested on: Phakopsora pachyrhizi (the causal agent of Asian soybean rust); test: Test A: preventive spray on soybean seedlings, visual disease rating (100 = 100% control; * 50 ppm, ** 10 ppm, *** 250 ppm); type: in vivo; conditions: 100 = 100% disease control; for pest or weed control at 10 ppm: Phakopsora pachyrhizi
In short: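 Soybean seedlings sprayed to run-off with compound suspended in acetone/water with 250 ppm PEG400 surfactant, inoculated next day with P. pachyrhizi spores. Kept 24 h saturated at 22 °C, then 8 days at 22 °C before visual rating of disease control (0-100) relative to controls.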

[3] = 50 ppm test suspension, 0 = no control
[4] = 10 ppm test suspension, wheat seedlings
[5] = 10 ppm test suspension, soybean seedlings
[6] = 10 ppm test suspension, 0 = no control
[7] = 50 ppm test suspension, wheat seedlings
[8] = 50 ppm test suspension, soybean seedlings

Structure (SMILES)	Test B disease control rating [1, 4]	Test A disease control rating [2, 5]	Test B disease control rating [1, 6]	Test A disease control rating [2, 6]	also measured
O=C(NCC(F)F)c1cnc(Cc2ccc(OCC(O)(O)C(F)(F)F)cc2)s1 [compound 295]	–	–	–	–	Test B disease control rating [1, 3]: 80%; Test A disease control rating [2, 3]: 99%
O=C(OCc1ccccn1)c1cnn(Cc2ccc(OCC3(C(F)(F)F)OCCO3)cc2)c1 [compound 199]	0%	100%	–	–	–
CS(=O)(=O)c1ccc(OCC2(C(F)(F)F)OCCO2)cc1 [compound 24]	91%	81%	–	–	–
CCO/C(=C\Oc1ccc(C(=O)NC)cc1)C(F)(F)F [compound 105]	68%	0%	–	–	–
CCOC(=O)c1cnn(Cc2ccc(O/C=C(\OCC)C(F)(F)F)cc2)n1 [compound 119]	0%	97%	–	–	–
CCO/C(=C\Oc1ccc(Cn2cncn2)cc1)C(F)(F)F [compound 157]	9%	0%	–	–	–
CCOC(=O)c1cnn(Cc2ccc(O/C=C(\OCC#N)C(F)(F)F)cc2)c1 [compound 400]	–	–	–	–	Test B disease control rating [1, 3]: 0%; Test A disease control rating [2, 3]: 100%
O=C(OCC(=O)C1CCCCC1)c1cnn(Cc2ccc(OCC3(C(F)(F)F)OCCO3)cc2)c1 [compound 202]	0%	100%	–	–	–
CCOC(=O)c1cnn(C(C)c2cccc(O/C=C(\OCC)C(F)(F)F)c2)c1 (stereo not drawn) [compound 304]	–	–	–	–	Test B disease control rating [1, 3]: 0%; Test A disease control rating [2, 3]: 96%
CCOC(=O)c1ccn(Cc2cc(OC)cc(O/C=C(\OCC)C(F)(F)F)c2)n1 [compound 378]	–	–	0%	0%	–
CCOC(=COc1ccc(CCl)cc1)C(F)(F)F [compound 434]	–	–	–	–	Test B disease control rating [1, 3]: 0%; Test A disease control rating [2, 3]: 0%
CCO/C(=C\Oc1ccc(Cc2nc(C(=O)NCC(F)(F)F)cs2)cc1)C(F)(F)F [compound 129]	0%	100%	–	–	–
CCO/C(=C\Oc1ccc(Cn2cc(C(F)(F)F)cn2)cc1)C(F)(F)F [compound 182]	0%	0%	–	–	–
CCOC(=O)c1cnn(Cc2ccc(OC(F)(F)C3(C(F)(F)F)OCCO3)cc2)c1 [compound 319]	–	–	–	–	Test B disease control rating [1, 3]: 41%; Test A disease control rating [2, 3]: 100%
CC#CCOC(=O)c1cnn(Cc2cccc(O/C=C(\OCC)C(F)(F)F)c2)c1 [compound 300]	–	–	0%	100%	–
CCOC(=O)c1cncn1Cc1cccc(O/C=C(\OCC)C(F)(F)F)c1 [compound 447]	–	–	–	–	pest or weed control at 10 ppm [1, 6]: 0%; pest or weed control at 10 ppm [2, 6]: 0%
CCOC(=O)c1cnn(CCc2cccc(OCC(O)(O)C(F)(F)F)c2)c1 [compound 346]	–	–	–	–	pest or weed control at 10 ppm [1, 6]: 0%; pest or weed control at 10 ppm [2, 6]: 0%
OC(O)(CCc1ccc(Cn2ccc3ccccc32)cc1)C(F)(F)F [compound 30]	0%	0%	–	–	–
C#CCOC(=O)c1cnn(Cc2ccc(OCC3(C(F)(F)F)OCCO3)cc2)c1 [compound 15]	0%	100%	–	–	–

Structure (SMILES)	Test B disease control rating [1, 4]	Test A disease control rating [2, 5]	Test B disease control rating [1, 6]	Test A disease control rating [2, 6]	also measured
C=CCOC(=O)c1ccn(Cc2ccc(OC=C(OCC)C(F)(F)F)cc2)n1 [compound 291]	–	–	0%	100%	–
CCOC(=O)c1cnn(Cc2ccc(OCC3(C(F)(F)F)OCCO3)nc2)c1 [compound 166]	95%	100%	–	–	–
CCCO/C(=C\Oc1cccc(Cn2cc(C(=O)OCC)cn2)c1)C(F)(F)F [compound 324]	–	–	0%	0%	–
CCO/C(=C\Oc1ccc(CCn2cc(C(=O)OC)cn2)cc1)C(F)(F)F [compound 354]	–	–	0%	100%	–
CCOC(=O)c1cnn(CCc2cccc(O/C=C(\OCC)C(F)(F)F)c2)c1 [compound 345]	–	–	0%	0%	–
CCOC(=O)c1nccn1Cc1cccc(O/C=C(\OCC)C(F)(F)F)c1 [compound 367]	–	–	–	–	pest or weed control at 10 ppm [1, 6]: 0%; pest or weed control at 10 ppm [2, 6]: 0%
OCc1ccc(OCC2(C(F)(F)F)OCCO2)cc1 [compound 178]	0%	0%	–	–	–
O=Cc1ccc(OCC(O)(O)C(F)(F)F)cc1 [compound 177]	–	–	–	–	Test B disease control rating [1, 7]: 89%; Test A disease control rating [2, 8]: 100%
C=CCOC(=O)c1cnn(Cc2ccc(OCC3(C(F)(F)F)OCCO3)cc2)c1 [compound 188]	0%	100%	–	–	–
CCOC(=O)c1ccc(O/C=C(\OCC)C(F)(F)F)cc1 [compound 95]	0%	0%	–	–	–
CCO/C(=C\Oc1cccc(Cn2cc(C(=O)OCCOC(F)(F)F)cn2)c1)C(F)(F)F [compound 352]	–	–	0%	100%	–
CCOC(=O)C1CCCN(Cc2ccc(O/C=C(\OCC)C(F)(F)F)cc2)C1 (stereo not drawn) [compound 269]	–	–	0%	100%	–
CCO/C(=C\Oc1ccc(Cn2nc(C)cc2C)cc1)C(F)(F)F [compound 152]	0%	0%	–	–	–
C#CCOC(=O)c1ccc(O/C=C(\OCC)C(F)(F)F)cc1 [compound 75]	0%	0%	–	–	–
CCCCOC(=O)c1ccn(Cc2ccc(O/C=C(\OCC)C(F)(F)F)cc2)n1 [compound 356]	–	–	0%	100%	–
O=C(NCC1CC1)c1cnn(Cc2ccc(OCC(O)(O)C(F)(F)F)cc2)c1 [compound 36]	0%	70%	–	–	–
CCOC(=O)c1cnn(Cc2ccc(COCC3(C(F)(F)F)OCCO3)cc2)c1 [compound 141]	0%	0%	–	–	–
CCOC(=O)c1cnn(C(C)c2ccc(O/C=C(\OCC)C(F)(F)F)cc2)c1 (stereo not drawn) [compound 267]	–	–	0%	94%	–
CCNC(=O)c1cnn(Cc2cccc(O/C=C(\OCC)C(F)(F)F)c2)c1 [compound 343]	–	–	0%	0%	–

Structure (SMILES)	Test B disease control rating [1, 4]	Test A disease control rating [2, 5]	Test B disease control rating [1, 6]	Test A disease control rating [2, 6]	also measured
CCO/C(=C\Oc1ccc(Cn2ccc(C(=O)OC(C)C)n2)cc1)C(F)(F)F [compound 327]	–	–	0%	100%	–
CCO/C(=C\Oc1ccc(Cn2ccc(C(=O)O)n2)cc1)C(F)(F)F [compound 299]	–	–	0%	100%	–
CCOC(=COc1ccc(CN2CCC(OC)CC2)cc1)C(F)(F)F [compound 312]	–	–	0%	0%	–
O=C(O)c1cnn(Cc2ccc(OCC3(C(F)(F)F)OCCO3)cc2)c1 [compound 93]	0%	96%	–	–	–
CCOC(=O)c1cnn(CCCc2ccc(OCC3(C(F)(F)F)OCCO3)cc2)c1 [compound 296]	–	–	0%	0%	–
CCOC(=COc1ccc(NC(=O)C2CC2)cc1)C(F)(F)F [compound 371]	–	–	–	–	Test B disease control rating [1, 3]: 77%; Test A disease control rating [2, 3]: 0%
CCO/C(=C\Oc1ccc(Cn2cnc(SC)n2)cc1)C(F)(F)F [compound 261]	–	–	0%	0%	–
CCO/C(=C\Oc1cccc(Cn2cc(C(=O)OCCCCl)cn2)c1)C(F)(F)F [compound 338]	–	–	0%	100%	–
CCCOC(=O)c1ccn(Cc2ccc(OC=C(OCC)C(F)(F)F)cc2)n1 [compound 292]	–	–	0%	100%	–
CCOC(=O)c1cnn(Cc2ccc(F)c(O/C=C(\OCC)C(F)(F)F)c2)c1 [compound 418]	–	–	0%	0%	–
CCO/C(=C\Oc1ccc(Cn2ncc3cccnc32)cc1)C(F)(F)F [compound 87]	0%	0%	–	–	–
CCOC(=O)c1ccn(Cc2ccc(OCC3(C(F)(F)F)OCCO3)cc2)n1 [compound 232]	0%	98%	–	–	–
CCO/C(=C\Oc1cccc(Cn2cc(C(=O)OCCOC)cn2)c1)C(F)(F)F [compound 340]	–	–	0%	100%	–
FC(F)(F)C1(COc2ccc(Cc3ccccc3)cc2)OCCO1 [compound 192]	0%	0%	–	–	–
O=C(NCc1ccc(OCC2(C(F)(F)F)OCCO2)cc1)C1CC1 [compound 176]	0%	0%	–	–	–
C=C(C)COC(=O)c1cnn(Cc2ccc(OCC3(C(F)(F)F)OCCO3)cc2)c1 [compound 228]	0%	100%	–	–	–
CCOC(=O)c1cnn(Cc2ccc(CCC(O)(O)C(F)(F)F)cc2)c1 [compound 66]	–	–	–	–	Test B disease control rating [1, 7]: 89%; Test A disease control rating [2, 8]: 92%
CN(C)C(=O)c1cnn(Cc2ccc(OCC3(C(F)(F)F)OCCO3)cc2)c1 [compound 198]	0%	0%	–	–	–
CCOC(=O)c1cnn(Cc2ccc(OCC(O)(NO)C(F)(F)F)cc2)c1 (stereo not drawn) [compound 10]	86%	100%	–	–	–
